Measurements published in patent US20130018033A1, “RAF INHIBITOR COMPOUNDS AND METHODS OF USE THEREOF” (ARRAY BIOPHARMA INC., priority 2009, published 2013).
Read-outs that look alike come from different tables or passages of the source.

Tests used:
[1] = system: basal ERK1/2 phosphorylation in Malme-3M cells; assay: Cellular ERK 1/2 phosphorylation assay (Example A1); type: cell-based; conditions: Homo sapiens, 1 hour incubation, pERK normalized to total ERK, read-out: P-ERK Malme3-M IC50
Method in brief: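 Malme-3M cells (24,000/well, RPMI-1640 with 10% FBS) were treated with compounds for 1 h at 37 °C, 1% DMSO final. Fixed, methanol-permeabilized cells were immunostained for pERK and total ERK and read by infrared fluorescence. pERK signal was normalized to total ERK.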

V600E full-length B-Raf = biological target: T1, V600E full-length B-Raf (Homo sapiens, UniProt P15056, V600E); assay: B-Raf IC50 assay (Example A); type: biochemical
T1 construct: 1 μM FSBA-MEK and 20 nM V600E full-length B-Raf; made in house; host or cells: Sf9 insect cells (baculovirus)
T1 sequence (P15056 whole entry V600E): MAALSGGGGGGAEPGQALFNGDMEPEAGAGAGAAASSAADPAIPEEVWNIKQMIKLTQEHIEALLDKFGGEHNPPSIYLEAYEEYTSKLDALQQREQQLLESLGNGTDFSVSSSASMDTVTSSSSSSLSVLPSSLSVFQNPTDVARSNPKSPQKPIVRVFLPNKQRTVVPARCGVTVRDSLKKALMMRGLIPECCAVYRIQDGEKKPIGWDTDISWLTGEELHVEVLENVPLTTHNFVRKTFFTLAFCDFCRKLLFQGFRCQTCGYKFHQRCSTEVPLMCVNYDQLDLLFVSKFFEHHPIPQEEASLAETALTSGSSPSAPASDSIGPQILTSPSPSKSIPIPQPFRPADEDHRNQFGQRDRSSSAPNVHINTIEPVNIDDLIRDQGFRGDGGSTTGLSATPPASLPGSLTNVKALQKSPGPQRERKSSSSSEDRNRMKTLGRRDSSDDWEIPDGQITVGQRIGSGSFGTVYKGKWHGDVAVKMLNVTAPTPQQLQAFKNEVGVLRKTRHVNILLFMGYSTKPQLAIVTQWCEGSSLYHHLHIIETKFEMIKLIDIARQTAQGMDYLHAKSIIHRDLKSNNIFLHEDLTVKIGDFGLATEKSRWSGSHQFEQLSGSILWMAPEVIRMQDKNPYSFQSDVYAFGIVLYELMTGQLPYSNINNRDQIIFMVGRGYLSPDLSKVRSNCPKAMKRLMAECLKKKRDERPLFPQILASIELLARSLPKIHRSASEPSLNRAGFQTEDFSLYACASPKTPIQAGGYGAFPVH
Method in brief: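 Sf9-expressed full-length V600E B-Raf (20 nM) phosphorylated 1 µM FSBA-modified wild-type MEK with 4 µM ATP plus [γ-33P]ATP in 25 mM Pipes pH 7.2, 100 mM KCl, 10 mM MgCl2. Enzyme and substrate were preincubated 15 min, and the reaction ran 60 min at 22 °C. It was TCA-quenched and filter-captured, and incorporated radioactivity was scintillation-counted.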

[2] = B-Raf V600E assay of Example A, read-out: IC50
[3] = [γ-33P]ATP incorporation into FSBA-MEK, 4 μM ATP, read-out: BRAF V600E IC50

IC50 (V600E full-length B-Raf; [2]) | IC50 (V600E full-length B-Raf; [3]) | SMILES | IC50 [1]
< 100 nM | 1.14 nM | CCCS(=O)(=O)Nc1ccc(Cl)c(NC(=O)c2ccnc3c(N)ncnc23)c1F [Example 65, 4-Amino-pyrido[3,2-d]pyrimidine-8-carboxylic acid [6-chloro-2-fluoro-3-(propane-1-sulfonylamino)-phenyl]-amide] | 9.4 nM
< 100 nM | 0.75 nM | Nc1ncnc2c(C(=O)Nc3c(F)ccc(NS(=O)(=O)CCCF)c3F)ccnc12 [Example 66, 4-Amino-pyrido[3,2-d]pyrimidine-8-carboxylic acid [2,6-difluoro-3-(3-fluoro-propane-1-sulfonylamino)-phenyl]-amide] | 3.04 nM
< 100 nM | 0.42 nM | Nc1ncnc2c(C(=O)Nc3c(Cl)ccc(NS(=O)(=O)CCCF)c3F)ccnc12 [Example 67, 4-Amino-pyrido[3,2-d]pyrimidine-8-carboxylic acid [6-chloro-2-fluoro-3-(3-fluoro-propane-1-sulfonylamino)-phenyl]-amide] | 2.8 nM
< 100 nM | 14.5 nM | NC(=O)c1ccc(NS(=O)(=O)CCCF)c(F)c1NC(=O)c1ccnc2c(N)ncnc12 [Example 68, 4-Amino-pyrido[3,2-d]pyrimidine-8-carboxylic acid [6-carbamoyl-2-fluoro-3-(3-fluoro-propane-1-sulfonylamino)-phenyl]-amide] | 124 nM
< 100 nM | 19.5 nM | CCCS(=O)(=O)Nc1ccc(C#N)c(NC(=O)c2ccnc3c(N)ncnc23)c1F [Example 69, 4-Amino-pyrido[3,2-d]pyrimidine-8-carboxylic acid [6-cyano-2-fluoro-3-(propane-1-sulfonylamino)-phenyl]-amide] | 306 nM
< 100 nM | 1.4 nM | CCCS(=O)(=O)Nc1ccc(F)c(NC(=O)c2cc(C)cc3c(N)ncnc23)c1F [Example 70, 4-Amino-6-methyl-quinazoline-8-carboxylic acid [2,6-difluoro-3-(propane-1-sulfonylamino)-phenyl]-amide] | 8.59 nM
< 100 nM | 0.45 nM | CCCS(=O)(=O)Nc1ccc(F)c(NC(=O)c2cc(C)cc3c(N)ncnc23)c1Cl [Example 77, 4-Amino-6-methyl-quinazoline-8-carboxylic acid [2-chloro-6-fluoro-3-(propane-1-sulfonylamino)-phenyl]-amide] | 7.83 nM
< 100 nM | 0.49 nM | CCCS(=O)(=O)Nc1ccc(F)c(NC(=O)c2cc(F)cc3c(N)ncnc23)c1Cl [Example 78, 4-Amino-6-fluoro-quinazoline-8-carboxylic acid [2-chloro-6-fluoro-3-(propane-1-sulfonylamino)-phenyl]-amide] | 15.7 nM
< 100 nM | 58.8 nM | CCCS(=O)(=O)Nc1ccc(F)c(NC(=O)c2cc(C)cc3cncnc23)c1F [Example 79, 6-Methyl-quinazoline-8-carboxylic acid [2,6-difluoro-3-(propane-1-sulfonylamino)-phenyl]-amide] | 254 nM
